# Key:
# [1] = target: EphB3 (Homo sapiens, UniProt P54753); experiment: cell-based; set-up: PathHunter eXpress functional assay (DiscoverX tkMAX), inhibition of reference ligand response; conditions: read-out: % Inhibition of reference binding (Table 3)
# [2] = target: PDGFRb (Homo sapiens, UniProt P09619); experiment: cell-based; set-up: PathHunter eXpress functional assay (DiscoverX tkMAX), inhibition of reference ligand response; conditions: read-out: % Inhibition of reference binding (Table 3)
# [3] = target: IGF1R (Homo sapiens, UniProt P08069); experiment: cell-based; set-up: PathHunter eXpress functional assay (DiscoverX tkMAX), inhibition of reference ligand response; conditions: read-out: % Inhibition of reference binding (Table 3)
# [4] = target: PDGFRa (Homo sapiens, UniProt P16234); experiment: cell-based; set-up: PathHunter eXpress functional assay (DiscoverX tkMAX), inhibition of reference ligand response; conditions: read-out: % Inhibition of reference binding (Table 3)
# [5] = target: T1, ErbB1 (Homo sapiens, UniProt P00533); experiment: cell-based; set-up: PathHunter eXpress functional assay (DiscoverX tkMAX), inhibition of reference ligand response; conditions: read-out: % Inhibition of reference binding (Table 3)
# T1 construct: gene EGFR
# [6] = target: T2, PDGFRβ (Homo sapiens, UniProt P09619); experiment: biochemical; set-up: ExpresS Diversity kinase profile (Eurofins Cerep P10), per cent inhibition; conditions: read-out: Inhibition of reference binding (Table 4)
# T2 construct: gene PDGFRB
# [7] = target: Akt1/PKBα (Homo sapiens, UniProt P31749); experiment: biochemical; set-up: ExpresS Diversity kinase profile (Eurofins Cerep P10), per cent inhibition; conditions: read-out: Inhibition of reference binding (Table 4)
# [8] = target: CDC2/CDK1 (Homo sapiens, UniProt P06493); experiment: biochemical; set-up: ExpresS Diversity kinase profile (Eurofins Cerep P10), per cent inhibition; conditions: read-out: Inhibition of reference binding (Table 4)
# [9] = target: TAOK2 (Homo sapiens, UniProt Q9UL54); experiment: biochemical; set-up: ExpresS Diversity kinase profile (Eurofins Cerep P10), per cent inhibition; conditions: read-out: Inhibition of reference binding (Table 4)
# [10] = target: MAPKAPK2 (Homo sapiens, UniProt P49137); experiment: biochemical; set-up: ExpresS Diversity kinase profile (Eurofins Cerep P10), per cent inhibition; conditions: read-out: Inhibition of reference binding (Table 4)
# [11] = target: T3, Fms/CSFR kinase (Homo sapiens, UniProt P07333); experiment: biochemical; set-up: ExpresS Diversity kinase profile (Eurofins Cerep P10), per cent inhibition; conditions: read-out: Inhibition of reference binding (Table 4)
# T3 construct: gene CSF1R
# [12] = target: PLK1 (Homo sapiens, UniProt P53350); experiment: biochemical; set-up: ExpresS Diversity kinase profile (Eurofins Cerep P10), per cent inhibition; conditions: read-out: Inhibition of reference binding (Table 4)
# [13] = target: Pim2 kinase (Homo sapiens, UniProt Q9P1W9); experiment: biochemical; set-up: ExpresS Diversity kinase profile (Eurofins Cerep P10), per cent inhibition; conditions: read-out: Inhibition of reference binding (Table 4)
# [14] = target: T4, AurA/Aur2 kinase (Homo sapiens, UniProt O14965); experiment: biochemical; set-up: ExpresS Diversity kinase profile (Eurofins Cerep P10), per cent inhibition; conditions: read-out: Inhibition of reference binding (Table 4)
# T4 construct: gene AURKA
# [15] = target: T5, SIK (Homo sapiens, UniProt P57059); experiment: biochemical; set-up: ExpresS Diversity kinase profile (Eurofins Cerep P10), per cent inhibition; conditions: read-out: Inhibition of reference binding (Table 4)
# T5 construct: gene SIK1
# [16] = target: NEK2 (Homo sapiens, UniProt P51955); experiment: biochemical; set-up: ExpresS Diversity kinase profile (Eurofins Cerep P10), per cent inhibition; conditions: read-out: Inhibition of reference binding (Table 4)
# [17] = target: T6, CHK1 (Homo sapiens, UniProt O14757); experiment: biochemical; set-up: ExpresS Diversity kinase profile (Eurofins Cerep P10), per cent inhibition; conditions: read-out: Inhibition of reference binding (Table 4)
# T6 construct: gene CHEK1
# [18] = target: T7, IKKα (Homo sapiens, UniProt O15111); experiment: biochemical; set-up: ExpresS Diversity kinase profile (Eurofins Cerep P10), per cent inhibition; conditions: read-out: Inhibition of reference binding (Table 4)
# T7 construct: gene CHUK
# [19] = target: Src kinase (Homo sapiens, UniProt P12931); experiment: biochemical; set-up: ExpresS Diversity kinase profile (Eurofins Cerep P10), per cent inhibition; conditions: read-out: Inhibition of reference binding (Table 4)
# [20] = target: FGFR3 kinase (Homo sapiens, UniProt P22607); experiment: biochemical; set-up: ExpresS Diversity kinase profile (Eurofins Cerep P10), per cent inhibition; conditions: read-out: Inhibition of reference binding (Table 4)
# [21] = target: SGK1 (Homo sapiens, UniProt O00141); experiment: biochemical; set-up: ExpresS Diversity kinase profile (Eurofins Cerep P10), per cent inhibition; conditions: read-out: Inhibition of reference binding (Table 4)
# [22] = target: T8, TRKA (Homo sapiens, UniProt P04629); experiment: biochemical; set-up: ExpresS Diversity kinase profile (Eurofins Cerep P10), per cent inhibition; conditions: read-out: Inhibition of reference binding (Table 4)
# T8 construct: gene NTRK1
# [23] = target: MARK1 (Homo sapiens, UniProt Q9P0L2); experiment: biochemical; set-up: ExpresS Diversity kinase profile (Eurofins Cerep P10), per cent inhibition; conditions: read-out: Inhibition of reference binding (Table 4)
# [24] = target: T9, MNK2 (Homo sapiens, UniProt Q9HBH9); experiment: biochemical; set-up: ExpresS Diversity kinase profile (Eurofins Cerep P10), per cent inhibition; conditions: read-out: Inhibition of reference binding (Table 4)
# T9 construct: gene MKNK2
# [25] = target: PAK4 (Homo sapiens, UniProt O96013); experiment: biochemical; set-up: ExpresS Diversity kinase profile (Eurofins Cerep P10), per cent inhibition; conditions: read-out: Inhibition of reference binding (Table 4)
# [26] = target: FGFR2 kinase (Homo sapiens, UniProt P21802); experiment: biochemical; set-up: ExpresS Diversity kinase profile (Eurofins Cerep P10), per cent inhibition; conditions: read-out: Inhibition of reference binding (Table 4)
# [27] = target: T10, TrkB-P75 (Homo sapiens, UniProt Q16620); experiment: cell-based; set-up: PathHunter eXpress functional assay (DiscoverX tkMAX), inhibition of reference ligand response; conditions: read-out: % Inhibition of reference binding (Table 3)
# T10 construct: gene NTRK2
# T1 sequence (P00533 whole entry): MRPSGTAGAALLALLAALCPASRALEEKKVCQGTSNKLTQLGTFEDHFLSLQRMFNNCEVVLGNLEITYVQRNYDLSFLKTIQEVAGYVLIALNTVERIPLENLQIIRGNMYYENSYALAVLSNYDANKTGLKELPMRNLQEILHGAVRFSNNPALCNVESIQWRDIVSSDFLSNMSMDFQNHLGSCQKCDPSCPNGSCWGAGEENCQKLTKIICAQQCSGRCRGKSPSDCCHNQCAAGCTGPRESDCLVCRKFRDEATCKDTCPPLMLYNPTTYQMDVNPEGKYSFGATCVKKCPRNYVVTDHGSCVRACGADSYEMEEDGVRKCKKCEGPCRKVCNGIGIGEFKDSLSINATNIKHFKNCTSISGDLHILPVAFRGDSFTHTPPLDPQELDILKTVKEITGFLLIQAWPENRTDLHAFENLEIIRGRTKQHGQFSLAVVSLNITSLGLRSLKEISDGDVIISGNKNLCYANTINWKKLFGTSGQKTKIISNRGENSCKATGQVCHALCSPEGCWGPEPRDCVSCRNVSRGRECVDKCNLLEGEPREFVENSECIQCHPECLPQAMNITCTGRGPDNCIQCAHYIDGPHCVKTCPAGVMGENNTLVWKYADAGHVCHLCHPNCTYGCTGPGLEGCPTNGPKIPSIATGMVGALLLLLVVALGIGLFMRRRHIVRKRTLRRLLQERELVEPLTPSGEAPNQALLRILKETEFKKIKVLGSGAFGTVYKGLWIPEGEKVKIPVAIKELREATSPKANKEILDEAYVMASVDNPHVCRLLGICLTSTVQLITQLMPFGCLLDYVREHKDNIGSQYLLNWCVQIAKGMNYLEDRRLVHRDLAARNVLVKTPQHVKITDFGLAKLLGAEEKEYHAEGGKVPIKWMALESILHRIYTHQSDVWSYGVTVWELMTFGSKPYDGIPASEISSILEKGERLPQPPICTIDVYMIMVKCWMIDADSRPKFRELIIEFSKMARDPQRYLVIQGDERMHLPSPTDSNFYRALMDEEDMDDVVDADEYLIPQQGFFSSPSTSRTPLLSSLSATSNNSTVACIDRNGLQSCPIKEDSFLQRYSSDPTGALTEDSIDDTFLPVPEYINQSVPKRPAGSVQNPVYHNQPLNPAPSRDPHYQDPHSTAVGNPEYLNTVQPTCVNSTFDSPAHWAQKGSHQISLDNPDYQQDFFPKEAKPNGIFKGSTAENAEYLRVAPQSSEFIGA
# T8 sequence (P04629 whole entry): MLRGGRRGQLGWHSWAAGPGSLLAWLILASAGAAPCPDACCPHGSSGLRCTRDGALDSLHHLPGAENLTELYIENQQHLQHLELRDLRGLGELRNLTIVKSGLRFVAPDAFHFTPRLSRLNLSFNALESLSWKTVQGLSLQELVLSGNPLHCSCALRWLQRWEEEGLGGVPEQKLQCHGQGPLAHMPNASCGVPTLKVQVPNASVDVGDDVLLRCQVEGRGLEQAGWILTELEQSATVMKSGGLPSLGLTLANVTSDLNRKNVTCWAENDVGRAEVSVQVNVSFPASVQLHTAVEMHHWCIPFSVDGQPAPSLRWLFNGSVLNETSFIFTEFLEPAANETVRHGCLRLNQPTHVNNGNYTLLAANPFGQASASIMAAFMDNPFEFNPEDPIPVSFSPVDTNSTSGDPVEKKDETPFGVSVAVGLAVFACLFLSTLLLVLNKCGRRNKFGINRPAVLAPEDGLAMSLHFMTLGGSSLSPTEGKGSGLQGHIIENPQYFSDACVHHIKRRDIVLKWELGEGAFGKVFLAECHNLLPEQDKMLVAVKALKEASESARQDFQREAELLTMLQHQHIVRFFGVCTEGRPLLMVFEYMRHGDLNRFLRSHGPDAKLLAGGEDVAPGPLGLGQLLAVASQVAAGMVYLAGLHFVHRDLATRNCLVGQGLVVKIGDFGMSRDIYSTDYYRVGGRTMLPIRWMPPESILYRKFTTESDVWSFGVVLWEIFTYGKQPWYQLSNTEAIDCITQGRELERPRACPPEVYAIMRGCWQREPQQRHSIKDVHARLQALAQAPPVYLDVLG
# Sequence of PDGFRa (P16234 whole entry): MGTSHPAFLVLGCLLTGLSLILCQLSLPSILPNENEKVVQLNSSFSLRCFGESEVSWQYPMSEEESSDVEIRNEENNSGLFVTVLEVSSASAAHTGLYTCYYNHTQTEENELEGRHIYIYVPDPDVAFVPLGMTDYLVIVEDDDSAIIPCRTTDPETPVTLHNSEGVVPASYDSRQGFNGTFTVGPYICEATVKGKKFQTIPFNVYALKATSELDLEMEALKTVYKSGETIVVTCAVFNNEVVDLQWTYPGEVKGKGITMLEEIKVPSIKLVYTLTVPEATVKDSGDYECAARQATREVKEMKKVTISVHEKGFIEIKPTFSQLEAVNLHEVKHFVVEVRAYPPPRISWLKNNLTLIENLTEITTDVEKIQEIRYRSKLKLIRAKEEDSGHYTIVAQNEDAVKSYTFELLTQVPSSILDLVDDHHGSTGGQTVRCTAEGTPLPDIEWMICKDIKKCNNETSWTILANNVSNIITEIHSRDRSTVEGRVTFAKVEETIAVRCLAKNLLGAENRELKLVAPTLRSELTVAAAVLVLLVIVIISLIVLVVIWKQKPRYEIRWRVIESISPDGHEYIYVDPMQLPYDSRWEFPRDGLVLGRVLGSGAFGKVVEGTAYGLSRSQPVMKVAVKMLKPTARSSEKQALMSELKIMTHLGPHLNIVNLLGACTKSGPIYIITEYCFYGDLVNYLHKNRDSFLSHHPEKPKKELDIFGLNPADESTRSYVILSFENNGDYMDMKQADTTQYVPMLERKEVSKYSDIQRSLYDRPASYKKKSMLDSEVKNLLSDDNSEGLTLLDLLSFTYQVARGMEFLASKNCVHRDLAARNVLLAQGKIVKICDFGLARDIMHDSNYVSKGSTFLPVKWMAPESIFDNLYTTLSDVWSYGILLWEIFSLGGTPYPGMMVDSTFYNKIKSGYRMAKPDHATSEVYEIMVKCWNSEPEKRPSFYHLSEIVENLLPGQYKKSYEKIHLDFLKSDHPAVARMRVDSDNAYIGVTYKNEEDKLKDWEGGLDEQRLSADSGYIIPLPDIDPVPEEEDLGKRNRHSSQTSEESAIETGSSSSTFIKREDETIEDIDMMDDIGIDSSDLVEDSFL
# T3 sequence (P07333 whole entry): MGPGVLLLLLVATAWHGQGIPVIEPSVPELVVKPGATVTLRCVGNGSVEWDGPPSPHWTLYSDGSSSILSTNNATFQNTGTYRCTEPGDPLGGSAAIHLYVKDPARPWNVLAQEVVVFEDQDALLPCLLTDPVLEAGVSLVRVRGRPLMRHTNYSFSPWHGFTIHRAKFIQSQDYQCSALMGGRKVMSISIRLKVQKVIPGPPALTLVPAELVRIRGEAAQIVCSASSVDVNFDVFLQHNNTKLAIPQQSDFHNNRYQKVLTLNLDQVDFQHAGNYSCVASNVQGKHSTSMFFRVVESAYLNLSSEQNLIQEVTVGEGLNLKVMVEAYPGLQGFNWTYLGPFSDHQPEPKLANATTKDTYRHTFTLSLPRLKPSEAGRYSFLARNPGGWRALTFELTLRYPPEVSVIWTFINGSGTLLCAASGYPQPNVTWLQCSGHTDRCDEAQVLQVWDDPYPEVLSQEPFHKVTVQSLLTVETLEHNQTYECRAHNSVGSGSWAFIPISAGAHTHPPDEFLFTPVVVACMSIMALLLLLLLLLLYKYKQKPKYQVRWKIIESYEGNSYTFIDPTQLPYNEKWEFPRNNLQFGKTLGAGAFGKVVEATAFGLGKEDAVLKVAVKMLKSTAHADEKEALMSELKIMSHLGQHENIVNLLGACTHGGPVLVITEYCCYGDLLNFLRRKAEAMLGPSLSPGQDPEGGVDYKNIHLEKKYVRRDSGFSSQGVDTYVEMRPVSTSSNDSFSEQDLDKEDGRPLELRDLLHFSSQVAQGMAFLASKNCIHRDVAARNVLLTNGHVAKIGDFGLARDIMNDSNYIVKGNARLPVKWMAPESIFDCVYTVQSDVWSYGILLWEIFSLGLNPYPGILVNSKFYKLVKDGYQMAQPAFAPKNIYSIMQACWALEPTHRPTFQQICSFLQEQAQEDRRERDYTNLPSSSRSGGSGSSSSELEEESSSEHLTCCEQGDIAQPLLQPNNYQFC
# T4 sequence (O14965 whole entry): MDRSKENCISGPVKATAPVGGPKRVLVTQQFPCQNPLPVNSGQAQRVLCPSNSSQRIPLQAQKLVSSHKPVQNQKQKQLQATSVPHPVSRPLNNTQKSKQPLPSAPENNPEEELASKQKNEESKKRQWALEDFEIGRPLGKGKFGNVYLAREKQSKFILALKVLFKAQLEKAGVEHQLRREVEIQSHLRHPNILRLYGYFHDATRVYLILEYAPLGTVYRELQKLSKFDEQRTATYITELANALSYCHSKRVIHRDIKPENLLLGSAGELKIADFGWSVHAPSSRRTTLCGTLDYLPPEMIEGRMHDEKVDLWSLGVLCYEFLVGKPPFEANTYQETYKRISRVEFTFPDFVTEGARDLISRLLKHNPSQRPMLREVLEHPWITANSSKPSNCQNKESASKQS
# Sequence of Src kinase (P12931 whole entry): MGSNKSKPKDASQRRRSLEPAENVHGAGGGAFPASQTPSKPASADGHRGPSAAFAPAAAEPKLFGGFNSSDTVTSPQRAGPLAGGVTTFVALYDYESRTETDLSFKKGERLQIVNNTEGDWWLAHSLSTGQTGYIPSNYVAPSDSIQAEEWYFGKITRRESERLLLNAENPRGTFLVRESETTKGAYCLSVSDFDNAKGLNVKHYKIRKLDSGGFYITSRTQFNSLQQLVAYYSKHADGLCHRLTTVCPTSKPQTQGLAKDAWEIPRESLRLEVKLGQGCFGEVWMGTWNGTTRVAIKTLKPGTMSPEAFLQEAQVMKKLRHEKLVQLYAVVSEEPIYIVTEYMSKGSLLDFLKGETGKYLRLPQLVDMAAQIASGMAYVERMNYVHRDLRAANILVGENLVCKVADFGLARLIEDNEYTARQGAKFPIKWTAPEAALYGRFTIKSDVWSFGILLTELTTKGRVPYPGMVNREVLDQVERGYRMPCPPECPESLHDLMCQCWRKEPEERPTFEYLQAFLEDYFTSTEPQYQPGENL
smiles,measurement,setting,value
"O=C(Nc1cc(Cl)ccc1O)c1cccc(S(=O)(=O)N2CCCCC2)c1 [compound 66, BDT001]",inhibition at 10 µM,[1],2.8%
same,inhibition at 10 µM,[2],4.2%
same,inhibition at 10 µM,[3],10.1%
same,inhibition at 10 µM,[4],2.2%
same,inhibition at 10 µM,[5],8.7%
same,inhibition at 10 µM,[6],-2%
same,inhibition at 10 µM,[7],-13%
same,inhibition at 10 µM,[8],26%
same,inhibition at 10 µM,[9],33%
same,inhibition at 10 µM,[10],6%
same,inhibition at 10 µM,[11],1%
same,inhibition at 10 µM,[12],-5%
same,inhibition at 10 µM,[13],19%
same,inhibition at 10 µM,[14],-5%
same,inhibition at 10 µM,[15],-6%
same,inhibition at 10 µM,[16],-23%
same,inhibition at 10 µM,[17],-10%
same,inhibition at 10 µM,[18],20%
same,inhibition at 10 µM,[19],-4%
same,inhibition at 10 µM,[20],33%
same,inhibition at 10 µM,[21],16%
same,inhibition at 10 µM,[22],0%
same,inhibition at 10 µM,[23],13%
same,inhibition at 10 µM,[24],-7%
same,inhibition at 10 µM,[25],6%
same,inhibition at 10 µM,[26],-2%
same,inhibition at 10 µM,[27],-1.3%

# Reference: article PMC5847526, “Inhibition of neuronal FLT3 receptor tyrosine kinase alleviates peripheral neuropathic pain in mice” (Nature Communications, 2018)
